The values that follow come from patent US6692927B2, “Bax degradation involvement in tumor survival and progression” (University of South Florida, priority 2000, dated 2004).

Where a SMILES comes first, the peptide text is derived from it. [ ]: non-standard residue; d: D form. The star is where a group is joined. Nva = CCC[C@H](N)C(=O)O; Cbz = O=C(OCc1ccccc1)*

The subject of the assay is Bax degradation activity. Nature of the assay: cell-free Bax (or Bcl-2) degradation assay with extracts of inhibitor-pretreated cells. It counts as cell-based, human. How it is done:
FIGS. 9A-9F show Bax degradation depends on ubiquitination, proteasome and ATP. (FIG. 9A) Jurkat cells (0 h) were treated with either 50 μM LLnV or 10 μM lactacystin, followed by preparation of Bax immunoprecipitates (with clone 6A7), which were immunoblotted with an ubiquitin antibody. Positions of putative ubiquitinated Bax proteins (p47, p55) are indicated at left. The nature of the ˜30 kDa and ˜84 kDa remains unclear. (FIG. 9B) The [^35S]-labeled Bax (upper) or Bcl-2 (lower) protein (1 μl) were incubated at 37° C. for 2 h with either buffer Z only (lane 1) or […] protein extract of MCF-7 cells grown exponentially (lane 2) or pretreated for 8 h with […] LLnV (lane 3). (FIG. 9C) The [^35S]-labeled Bax protein (1 μl) was incubated with either buffer Z only (lane 1) or 100 μg MCF-7 cell lysate at 37° C. for 4 h, in the presence of an indicated inhibitor (100 mM; lanes 3-8) or an equal volume of DMSO (lane 2) in buffer Z. A weak band of ˜16 kDa (indicated by an arrow) is probably an intermediate product of proteasome-mediated Bax degradation. (FIG. 9D) The proteasome in MCF-7 whole cell lysate (W lys, lane 1) was precipitated by using either ultraspin (ULS) or a proteasome subunit a6 antibody (IP). Both supernatant (lanes 2, 4) and pellet (lanes 3, 5) fractions were examined by Western blot assay using antibody to the proteasome a6 subunit (MW 33 kDa). (FIG. 9E) Bax degradation assay was performed as in FIG. 9B, with addition of buffer Z (lane 1) or 100 μg protein from MCF-7 whole cell lysate (lane 2), ultraspun supernatant (lane 3) or plus the pellet (lane 4), immunodepleted supernatant (lane 5) or plus a purified 20S proteasome ([…]; lane 6), or the purified proteasome alone (2 μg; lane 7). (FIG. 9F) Bax degradation assay was performed as in FIG. 9B, in the absence (lane 3) or presence of 10 mM ATP (lane 2) or 10 mM ATP-y-S (lane 4).
In vitro Bax Degradation Assay: Human Bax-a cDNA subcloned into pcDNA3 was a gift from Dr. Hong-gang Wang. Human full length of bcl-2-a cDNA was cloned from Jurkat T cells and subcloned into pcDNA3.1(−) as described+. Both bax and bcl-2 plasmids were used for coupled in vitro transcription/translation (Promega; Madison, Wis.) in the presence of [^35S]methionine (Amersham Pharmacia Biotech; Piscataway, N.J.). Protein extracts were prepared from either MCF-7 cells or prostate tumor tissues in buffer Y (50 mM Tris-HCl, pH 7.4, 250 mM NaCl, 1% Triton X-100, 0.1% SDS, 1 mM EDTA), and used for Bax (or Bcl-2) degradation assay. […]

The mark [1] stands for this setting: Jurkat T cells pretreated with LLnV (50 µM, 8 hours).

In the case of `CCC[C@@H](C=O)NC(=O)[C@H](CC(C)C)NC(=O)[C@H](CC(C)C)NC(=O)OCc1ccccc1` [LLnV] (Cbz-Leu-Leu-[Nva]-aldehyde), under setting [1], the “Bax degradation activity in the cell extract” value is recorded as “inhibited” and the “levels of labeled Bcl-2 after in vitro incubation” value is listed as “no effects”. In addition, where the note is “MCF-7 cells pretreated for 8 h with 50 mM LLnV (FIG. 9B legend)”, the “cell-free Bax degradation activity” value was “inhibited”. In addition, the “BDA inhibition, VA-13 compared with MCF-7” value (cells pretreated with LLnV) is “a greater inhibition was observed in VA-13 than in MCF-7 cells”.
